Data taken from ChEMBL document CHEMBL1909046, “DrugMatrix in vitro pharmacology data”.

Tests used:
[1] = molecular target: 5-hydroxytryptamine receptor 4 (Cavia porcellus, UniProt O70528); assay type: cell membranes, Dunkin-Hartley, Striatum, Membrane; details: for Ki: read-out: Ki; as to all read-outs here: in other assays of this panel Not Active means under 50% inhibition at 10 µM
[2] = molecular target: Kappa-type opioid receptor (Homo sapiens, UniProt P41145); experiment: DRUGMATRIX: Opiate kappa (OP2, KOP) radioligand binding (ligand: [3H] Diprenorphine); assay type: cell membranes, HEK293, Membrane; details: hek293; Not Active = under 50% inhibition at 10 µM
[3] = molecular target: Aldo-keto reductase family 1 member B1 (Rattus norvegicus, UniProt P07943); experiment: biochemical; assay type: tissue-based, Lens of camera-type eye;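 also: inhibition of aldose reductase enzyme activity, measured with DL-glyceraldehyde as the substrate; in other assays of this panel Not Active means under 50% inhibition at 10 µM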
[4] = molecular target: T1, Alpha-2C adrenergic receptor (Homo sapiens, UniProt P18825); experiment: DRUGMATRIX: Adrenergic Alpha-2C radioligand binding (ligand: [3H] MK-912); assay type: cell membranes, Sf9, Membrane; details: for Ki: read-out: Ki
T1 sequence (P18825 whole entry): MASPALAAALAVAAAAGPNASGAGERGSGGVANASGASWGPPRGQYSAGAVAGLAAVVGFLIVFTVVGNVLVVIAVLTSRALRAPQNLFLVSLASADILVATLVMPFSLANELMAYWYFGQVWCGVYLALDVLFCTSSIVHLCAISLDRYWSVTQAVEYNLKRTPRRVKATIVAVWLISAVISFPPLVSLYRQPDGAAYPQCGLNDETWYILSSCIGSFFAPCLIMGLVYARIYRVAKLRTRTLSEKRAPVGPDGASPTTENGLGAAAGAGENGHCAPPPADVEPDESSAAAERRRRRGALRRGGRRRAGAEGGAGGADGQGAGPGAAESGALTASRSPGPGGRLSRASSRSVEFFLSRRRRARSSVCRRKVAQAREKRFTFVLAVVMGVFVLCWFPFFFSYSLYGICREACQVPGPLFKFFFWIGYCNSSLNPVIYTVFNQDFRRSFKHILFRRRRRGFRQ

[5] = DRUGMATRIX: Potassium Channel [KATP] radioligand binding (ligand: [3H] Glyburide); assay type: cell membranes, Membrane; details: hit-t15; Not Active = under 50% inhibition at 10 µM
[6] = molecular target: Tyrosine-protein kinase Lck (Homo sapiens, UniProt P06239); experiment: DRUGMATRIX: Protein Tyrosine Kinase, LCK enzyme inhibition (substrate: Poly(Glu:Tyr)); assay type: cell-based, Insect cells; details: insect cells; Not Active = under 50% inhibition at 10 µM
Chain of Tyrosine-protein kinase Lck (P06239 whole entry): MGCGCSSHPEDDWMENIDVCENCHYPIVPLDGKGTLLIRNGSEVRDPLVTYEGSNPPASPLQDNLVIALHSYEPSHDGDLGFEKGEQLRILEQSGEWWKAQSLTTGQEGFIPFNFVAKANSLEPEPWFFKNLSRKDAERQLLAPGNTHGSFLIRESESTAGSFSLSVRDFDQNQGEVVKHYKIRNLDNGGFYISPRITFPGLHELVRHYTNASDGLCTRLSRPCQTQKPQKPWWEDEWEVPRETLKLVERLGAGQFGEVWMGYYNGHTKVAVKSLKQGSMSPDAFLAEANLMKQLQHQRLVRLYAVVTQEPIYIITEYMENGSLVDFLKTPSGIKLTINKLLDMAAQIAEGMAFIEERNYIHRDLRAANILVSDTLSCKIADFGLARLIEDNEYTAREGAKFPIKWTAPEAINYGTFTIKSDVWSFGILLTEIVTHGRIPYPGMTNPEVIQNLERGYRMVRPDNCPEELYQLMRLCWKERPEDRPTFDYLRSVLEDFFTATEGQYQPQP

Chain of Kappa-type opioid receptor (P41145 whole entry): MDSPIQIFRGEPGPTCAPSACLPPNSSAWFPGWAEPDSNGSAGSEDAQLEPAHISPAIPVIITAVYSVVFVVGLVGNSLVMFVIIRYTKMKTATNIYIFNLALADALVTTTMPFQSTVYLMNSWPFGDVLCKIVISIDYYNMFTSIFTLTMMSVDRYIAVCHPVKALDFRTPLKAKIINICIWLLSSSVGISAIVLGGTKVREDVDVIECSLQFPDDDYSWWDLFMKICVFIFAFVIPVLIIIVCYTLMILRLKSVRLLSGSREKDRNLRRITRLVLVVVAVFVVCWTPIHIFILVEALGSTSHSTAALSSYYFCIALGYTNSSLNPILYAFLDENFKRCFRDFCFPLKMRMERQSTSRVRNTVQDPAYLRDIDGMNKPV
Chain of 5-hydroxytryptamine receptor 4 (O70528 whole entry): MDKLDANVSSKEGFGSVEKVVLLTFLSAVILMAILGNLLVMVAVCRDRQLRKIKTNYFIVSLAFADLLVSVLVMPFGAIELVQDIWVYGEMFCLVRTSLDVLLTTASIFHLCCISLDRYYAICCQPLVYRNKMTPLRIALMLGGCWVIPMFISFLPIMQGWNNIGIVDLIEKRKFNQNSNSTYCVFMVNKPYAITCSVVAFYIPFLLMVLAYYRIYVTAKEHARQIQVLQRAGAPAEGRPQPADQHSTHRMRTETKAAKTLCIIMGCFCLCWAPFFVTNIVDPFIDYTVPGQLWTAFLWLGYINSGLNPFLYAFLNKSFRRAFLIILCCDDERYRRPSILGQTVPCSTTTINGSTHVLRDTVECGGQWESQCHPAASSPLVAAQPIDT

With `Cc1c(O)c(=O)ccn1C` [DEFERIPRONE] the IC50 [1] was “Not Active”, the IC50 [2] was “Not Active” and the IC50 [3] was “Not Active”. The IC50 ([4]; sf9) was “Not Active”, the IC50 [5] was “Not Active” and the Ki [5] was “Not Active”. The IC50 [6] was “Not Active”.

In the case of `CNCCCN1c2ccccc2CCc2ccccc21` [DESIPRAMINE], the IC50 [1] is reported as “Not Active”, the IC50 [2] is reported as “Not Active” and the IC50 [3] is reported as “Not Active”. The IC50 ([4]; sf9) was “Not Active”, the IC50 [5] was “Not Active” and the Ki [5] was “Not Active”. For the same compound, the IC50 [6] was “Not Active”.

For `O=c1oc2ccccc2c(O)c1Cc1c(O)c2ccccc2oc1=O` [DICUMAROL], the IC50 [1] was “Not Active”, the IC50 [2] was “Not Active” and the IC50 ([3]; read-out: IC50) was 4.09 µM. For the same compound, the IC50 ([4]; sf9) was “Not Active”, the IC50 [5] was “Not Active” and the Ki [5] was “Not Active”. For the same compound, the IC50 [6] was “Not Active”.

For `C[C@H]1O[C@@H](O[C@H]2[C@@H](O)C[C@H](O[C@H]3[C@@H](O)C[C@H](O[C@H]4CC[C@@]5(C)[C@H](CC[C@@H]6[C@@H]5C[C@@H](O)[C@]5(C)[C@@H](C7=CC(=O)OC7)CC[C@]65O)C4)O[C@@H]3C)O[C@@H]2C)C[C@H](O)[C@@H]1O` [DIGOXIN], the IC50 [1] was “Not Active”, the IC50 [2] was “Not Active” and the IC50 [3] was “Not Active”. For the same compound, the IC50 ([4]; sf9) was “Not Active”, the IC50 [5] was “Not Active” and the Ki [5] was “Not Active”. For the same compound, the IC50 [6] was “Not Active”.

For `CC(C)[C@@]1(NC(=O)[C@@H]2C[C@@H]3c4cccc5[nH]cc(c45)C[C@H]3N(C)C2)O[C@@]2(O)[C@@H]3CCCN3C(=O)[C@H](Cc3ccccc3)N2C1=O.CS(=O)(=O)O` [DIHYDROERGOCRISTINE MESYLATE], the IC50 ([1]; read-out: IC50) was 4.91 µM, the Ki [1] was 819 nM and the IC50 [2] was “Not Active”. The IC50 [3] was “Not Active”, the IC50 ([4]; read-out: IC50) was 8.65 nM and the Ki [4] was 1.26 nM. For the same compound, the IC50 [5] was “Not Active”, the Ki [5] was “Not Active” and the IC50 [6] was “Not Active”.

In the case of `CC(=O)O[C@@]12CO[C@@H]1C[C@H](O)[C@@]1(C)C(=O)[C@H](O)C3=C(C)[C@@H](OC(=O)[C@H](O)[C@@H](NC(=O)OC(C)(C)C)c4ccccc4)C[C@@](O)([C@@H](OC(=O)c4ccccc4)[C@H]21)C3(C)C.O.O.O` [DOCETAXEL], the IC50 [1] is reported as “Not Active”, the IC50 [2] is reported as “Not Active” and the IC50 [3] is reported as “Not Active”. For the same compound, the IC50 ([4]; sf9) was “Not Active”, the IC50 [5] was “Not Active” and the Ki [5] was “Not Active”. For the same compound, the IC50 [6] was “Not Active”.

In the case of `COc1cc2nc(N3CCN(C(=O)C4COc5ccccc5O4)CC3)nc(N)c2cc1OC` (configuration not stated) [DOXAZOSIN], the IC50 ([1]; read-out: IC50) is reported as 0.764 µM, the Ki [1] is reported as 127 nM and the IC50 [2] is reported as “Not Active”. The IC50 [3] was “Not Active”, the IC50 ([4]; sf9) was “Not Active” and the IC50 [5] was “Not Active”. The Ki [5] was “Not Active” and the IC50 [6] was “Not Active”.

With `C[C@H]1c2cccc(O)c2C(=O)C2=C(O)[C@]3(O)C(=O)C(C(N)=O)=C(O)[C@@H](N(C)C)[C@@H]3[C@@H](O)[C@@H]21.O` [DOXYCYCLINE] the IC50 [1] was “Not Active”, the IC50 [2] was “Not Active” and the IC50 [3] was “Not Active”. For the same compound, the IC50 ([4]; sf9) was “Not Active”, the IC50 [5] was “Not Active” and the Ki [5] was “Not Active”. For the same compound, the IC50 [6] was “Not Active”.

In the case of `O=C(CCCN1CC=C(n2c(=O)[nH]c3ccccc32)CC1)c1ccc(F)cc1` [DROPERIDOL], the IC50 ([1]; read-out: IC50) is reported as 3.79 µM, the Ki [1] is reported as 632 nM and the IC50 [2] is reported as “Not Active”. For the same compound, the IC50 [3] was “Not Active”, the IC50 ([4]; read-out: IC50) was 1760 nM and the Ki [4] was 256 nM. The IC50 [5] was “Not Active”, the Ki [5] was “Not Active” and the IC50 [6] was “Not Active”.

In the case of `CC(C)[C@H]1C(=O)N2CCC[C@H]2[C@]2(O)O[C@](NC(=O)[C@@H]3C=C4c5cccc6[nH]cc(c56)C[C@H]4N(C)C3)(C(C)C)C(=O)N12` [ERGOCORNINE], the IC50 [1] is reported as “Not Active”, the IC50 [2] is reported as “Not Active” and the IC50 [3] is reported as “Not Active”. The IC50 ([4]; read-out: IC50) was 17 nM, the Ki [4] was 2.41 nM and the IC50 [5] was “Not Active”. The Ki [5] was “Not Active” and the IC50 [6] was “Not Active”.

For `C[C@]12CC[C@@H]3c4ccc(O)cc4CC[C@H]3[C@@H]1CCC2=O` [ESTRONE], the IC50 [1] was “Not Active”, the IC50 [2] was “Not Active” and the IC50 [3] was “Not Active”. For the same compound, the IC50 ([4]; sf9) was “Not Active”, the IC50 [5] was “Not Active” and the Ki [5] was “Not Active”. For the same compound, the IC50 [6] was “Not Active”.

With `OC(Cn1cncn1)(Cn1cncn1)c1ccc(F)cc1F` [FLUCONAZOLE] the IC50 [1] was “Not Active”, the IC50 [2] was “Not Active” and the IC50 [3] was “Not Active”. For the same compound, the IC50 ([4]; sf9) was “Not Active”, the IC50 [5] was “Not Active” and the Ki [5] was “Not Active”. For the same compound, the IC50 [6] was “Not Active”.

With `CC(C)C(=O)Nc1ccc([N+](=O)[O-])c(C(F)(F)F)c1` [FLUTAMIDE] the IC50 ([1]; read-out: IC50) was 13.5 µM, the Ki [1] was 2260 nM and the IC50 [2] was “Not Active”. The IC50 [3] was “Not Active”, the IC50 ([4]; sf9) was “Not Active” and the IC50 [5] was “Not Active”. For the same compound, the Ki [5] was “Not Active” and the IC50 [6] was “Not Active”.

In the case of `N=C(N)NCCN1CCCCCCC1` [GUANETHIDINE], the IC50 [1] is reported as “Not Active”, the IC50 [2] is reported as “Not Active” and the IC50 [3] is reported as “Not Active”. For the same compound, the IC50 ([4]; sf9) was “Not Active”, the IC50 [5] was “Not Active” and the Ki [5] was “Not Active”. The IC50 [6] was “Not Active”.

In the case of `CC1(C)O[C@@H]2C[C@H]3[C@@H]4CCC5=CC(=O)CC[C@]5(C)[C@@]4(F)[C@@H](O)C[C@]3(C)[C@]2(C(=O)CCl)O1` [HALCINONIDE], the IC50 [1] is reported as “Not Active”, the IC50 [2] is reported as “Not Active” and the IC50 [3] is reported as “Not Active”. For the same compound, the IC50 ([4]; sf9) was “Not Active”, the IC50 [5] was “Not Active” and the Ki [5] was “Not Active”. For the same compound, the IC50 [6] was “Not Active”.
